# Data from patent US20250186405A1, “Compound For Use In Treating Narcolepsy” (Alkermes, Inc., priority 2023, published 2025).
# Tested on: subjects with narcolepsy type-2 (NT2)
# Experiment: Part 5 POC NT2: treatment-emergent adverse events, single doses, crossover
# [1] = Total (any Compound A dose), N = 9
# Method: Part 5 consisted of a 4-way, 4-period crossover study design in approximately 8 subjects (2 subjects per sequence; minimum of 4 subjects with 1 subject per sequence). Subjects were randomized 1:1:1:1 to 1 of 4 sequences with 4 treatment periods (3 single doses of Compound A and 1 dose of matching placebo), with up to 48 hours of washout between treatments. Treatments were administered under fasted state.
# Subjects were randomized to 1 of 4 sequences. […] In each period, subjects were administered a single dose of study drug (either Compound A or placebo) as per the randomization schedule with approximately 240 mL of noncarbonated water following overnight fasting. No food was given for at least 3 hours after dose administration (i.e., fast can be broken after the 3-hour PK time point is collected). Water was allowed ad libitum except for 1 hour before and 1 hour after study drug administration. Safety assessments including AEs, safety ECGs, vital signs, and clinical laboratory tests were conducted, and plasma PK samples were collected. Furthermore, BP and HR were monitored once every hour for 12 hours on the dosing days.
# Adverse events (AEs) and serious adverse events (SAEs) were monitored continuously until the completion of the study.
# Nine subjects with NT2 were dosed in Part 5 (POC in NT2) in a randomized 4-sequence 4-period cross-over design. Each dose of Compound A or matching placebo was separated by 2 days. A 14-day washout period preceded the treatment period and included discontinuation of narcolepsy medications. All 9 subjects underwent the washout period and received at least one dose of Compound A. All subjects completed all 4-way randomized crossover periods.
smiles,measurement,setting,value
"CS(=O)(=O)N[C@H]1CCCN2C(=O)COc3ccccc3C3CCC(CC3)OCC12 (stereo partly drawn) [Compound A, N-[(4S,4aR,7α,10α)-1,2,3,4,4a,5,7,8,9,10,16,17-dodecahydro-17-oxo-7,10-ethanopyrido[1,2-d][1,7,4]benzodioxaazacyclotridecin-4-yl]methanesulfonamide]",Any SAEs,"25 mg single dose, N = 9",0 n (%)
same,Any TEAE,"25 mg single dose, N = 9",7 (77.8) n (%)
same,Death,"25 mg single dose, N = 9",0 n (%)
same,Drug Related TEAE by Preferred Term: Altered state of consciousness,"25 mg single dose, N = 9",0 n (%)
same,Drug Related TEAE by Preferred Term: Dizziness,"25 mg single dose, N = 9",2 (22.2) n (%)
same,Drug Related TEAE by Preferred Term: Dizziness postural,"25 mg single dose, N = 9",1 (11.1) n (%)
same,Drug Related TEAE by Preferred Term: Feeling jittery,"25 mg single dose, N = 9",1 (11.1) n (%)
same,Drug Related TEAE by Preferred Term: Headache,"25 mg single dose, N = 9",1 (11.1) n (%)
same,Drug Related TEAE by Preferred Term: Initial insomnia,"25 mg single dose, N = 9",0 n (%)
same,Drug Related TEAE by Preferred Term: Insomnia,"25 mg single dose, N = 9",2 (22.2) n (%)
same,Drug Related TEAE by Preferred Term: Photophobia,"25 mg single dose, N = 9",1 (11.1) n (%)
same,Drug Related TEAE by Preferred Term: Pollakiuria,"25 mg single dose, N = 9",3 (33.3) n (%)
same,Drug Related TEAE by Preferred Term: Tachycardia,"25 mg single dose, N = 9",0 n (%)
same,Drug Related TEAE by Preferred Term: Urinary incontinence,"25 mg single dose, N = 9",1 (11.1) n (%)
same,Subjects with at least one TEAE,"25 mg single dose, N = 9",7 (77.8) n (%)
same,Subjects with at least one treatment-related TEAE,"25 mg single dose, N = 9",6 (66.7) n (%)
same,TEAE by Highest Relationship: Not Related,"25 mg single dose, N = 9",1 (11.1) n (%)
same,TEAE by Highest Relationship: Related,"25 mg single dose, N = 9",6 (66.7) n (%)
same,TEAE by Highest Severity: Mild,"25 mg single dose, N = 9",6 (66.7) n (%)
same,TEAE by Highest Severity: Moderate,"25 mg single dose, N = 9",1 (11.1) n (%)
same,TEAE by Highest Severity: Severe,"25 mg single dose, N = 9",0 n (%)
same,TEAE by Preferred Term: Altered state of consciousness,"25 mg single dose, N = 9",0 n (%)
same,TEAE by Preferred Term: Constipation,"25 mg single dose, N = 9",0 n (%)
same,TEAE by Preferred Term: Contusion,"25 mg single dose, N = 9",1 (11.1) n (%)
same,TEAE by Preferred Term: Dizziness,"25 mg single dose, N = 9",2 (22.2) n (%)
same,TEAE by Preferred Term: Dizziness postural,"25 mg single dose, N = 9",1 (11.1) n (%)
same,TEAE by Preferred Term: Dry skin,"25 mg single dose, N = 9",0 n (%)
same,TEAE by Preferred Term: Feeling jittery,"25 mg single dose, N = 9",1 (11.1) n (%)
same,TEAE by Preferred Term: Headache,"25 mg single dose, N = 9",1 (11.1) n (%)
same,TEAE by Preferred Term: Initial insomnia,"25 mg single dose, N = 9",0 n (%)
same,TEAE by Preferred Term: Insomnia,"25 mg single dose, N = 9",2 (22.2) n (%)
same,TEAE by Preferred Term: Nasal dryness,"25 mg single dose, N = 9",1 (11.1) n (%)
same,TEAE by Preferred Term: Nausea,"25 mg single dose, N = 9",0 n (%)
same,TEAE by Preferred Term: Photophobia,"25 mg single dose, N = 9",1 (11.1) n (%)
same,TEAE by Preferred Term: Pollakiuria,"25 mg single dose, N = 9",3 (33.3) n (%)
same,TEAE by Preferred Term: Rash,"25 mg single dose, N = 9",0 n (%)
same,TEAE by Preferred Term: Skin lesion,"25 mg single dose, N = 9",0 n (%)
same,TEAE by Preferred Term: Tachycardia,"25 mg single dose, N = 9",0 n (%)
same,TEAE by Preferred Term: Urinary incontinence,"25 mg single dose, N = 9",1 (11.1) n (%)
same,Tolerability,"NT2, 5, 12 and 25 mg",well tolerated
same,Subjects with at least one TEAE,"NT2, N = 9, all periods",77.8%
same,AE Leading to Study Drug Discontinuation,[1],0 n (%)
same,Any SAEs,[1],0 n (%)
same,Any TEAE,[1],7 (77.8) n (%)
same,Death,[1],0 n (%)
same,Drug Related TEAE by Preferred Term: Altered state of consciousness,[1],0 n (%)
same,Drug Related TEAE by Preferred Term: Dizziness,[1],2 (22.2) n (%)
same,Drug Related TEAE by Preferred Term: Dizziness postural,[1],1 (11.1) n (%)
same,Drug Related TEAE by Preferred Term: Feeling jittery,[1],1 (11.1) n (%)
same,Drug Related TEAE by Preferred Term: Headache,[1],1 (11.1) n (%)
same,Drug Related TEAE by Preferred Term: Initial insomnia,[1],1 (11.1) n (%)
same,Drug Related TEAE by Preferred Term: Insomnia,[1],2 (22.2) n (%)
same,Drug Related TEAE by Preferred Term: Photophobia,[1],1 (11.1) n (%)
same,Drug Related TEAE by Preferred Term: Pollakiuria,[1],3 (33.3) n (%)
same,Drug Related TEAE by Preferred Term: Tachycardia,[1],0 n (%)
same,Drug Related TEAE by Preferred Term: Urinary incontinence,[1],1 (11.1) n (%)
same,Subjects with at least one TEAE,[1],7 (77.8) n (%)
same,Subjects with at least one treatment-related TEAE,[1],6 (66.7) n (%)
same,TEAE by Highest Relationship: Not Related,[1],1 (11.1) n (%)
same,TEAE by Highest Relationship: Related,[1],6 (66.7) n (%)
same,TEAE by Highest Severity: Mild,[1],6 (66.7) n (%)
same,TEAE by Highest Severity: Moderate,[1],1 (11.1) n (%)
same,TEAE by Highest Severity: Severe,[1],0 n (%)
same,TEAE by Preferred Term: Altered state of consciousness,[1],0 n (%)
same,TEAE by Preferred Term: Constipation,[1],1 (11.1) n (%)
same,TEAE by Preferred Term: Contusion,[1],1 (11.1) n (%)
same,TEAE by Preferred Term: Dizziness,[1],2 (22.2) n (%)
same,TEAE by Preferred Term: Dizziness postural,[1],1 (11.1) n (%)
same,TEAE by Preferred Term: Dry skin,[1],1 (11.1) n (%)
same,TEAE by Preferred Term: Feeling jittery,[1],1 (11.1) n (%)
same,TEAE by Preferred Term: Headache,[1],1 (11.1) n (%)
same,TEAE by Preferred Term: Initial insomnia,[1],1 (11.1) n (%)
same,TEAE by Preferred Term: Insomnia,[1],2 (22.2) n (%)
same,TEAE by Preferred Term: Nasal dryness,[1],1 (11.1) n (%)
same,TEAE by Preferred Term: Nausea,[1],1 (11.1) n (%)
same,TEAE by Preferred Term: Photophobia,[1],1 (11.1) n (%)
same,TEAE by Preferred Term: Pollakiuria,[1],3 (33.3) n (%)
same,TEAE by Preferred Term: Rash,[1],1 (11.1) n (%)
same,TEAE by Preferred Term: Skin lesion,[1],1 (11.1) n (%)
same,TEAE by Preferred Term: Tachycardia,[1],0 n (%)
same,TEAE by Preferred Term: Urinary incontinence,[1],1 (11.1) n (%)
